Our source for the IC50 values is patent US20130245355A1, “3-HETARYL-SUBSTITUTED PYRROLO[2,3 B]PYRIDINE DERIVATIVES AS PDK1 INHIBITORS” (MERCK PATENT GMBH, priority 2010, published 2013).

pIC50: −log10 of the molar value.

Test [1] addresses T1, PDK1 (Homo sapiens, UniProt O15530).
T1 construct: His6 (N)
T1 sequence (O15530 51-556 limits assumed): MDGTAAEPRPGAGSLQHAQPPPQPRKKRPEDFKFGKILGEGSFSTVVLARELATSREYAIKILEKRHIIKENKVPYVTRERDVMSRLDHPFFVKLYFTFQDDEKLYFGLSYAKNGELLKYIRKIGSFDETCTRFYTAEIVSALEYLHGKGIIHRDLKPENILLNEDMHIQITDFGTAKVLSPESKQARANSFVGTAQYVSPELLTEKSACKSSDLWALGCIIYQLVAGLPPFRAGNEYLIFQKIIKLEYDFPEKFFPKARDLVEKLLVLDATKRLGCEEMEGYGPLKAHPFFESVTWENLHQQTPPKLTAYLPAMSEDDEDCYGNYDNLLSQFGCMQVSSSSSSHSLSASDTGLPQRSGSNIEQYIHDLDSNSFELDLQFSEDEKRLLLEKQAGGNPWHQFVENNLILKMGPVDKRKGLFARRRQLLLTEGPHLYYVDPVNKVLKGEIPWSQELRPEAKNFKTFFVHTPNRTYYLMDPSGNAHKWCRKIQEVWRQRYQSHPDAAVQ
Put plainly: Test for the inhibition of PDK1 (flashplate, 33P-ATP). The note with it: His6-PDK1 (1-50) 3.4 nM, 4 μM ATP, 30° C., 60 min; read-out: IC50 [PDK1] biochemical. How it is done: The experimental batches are carried out in a flashplate system with 384 wells/microtitration plate.
In each case, the PDK1 sample His6-PDK1 (1-50) (3.4 nM), the PDK1 substrate biotin-bA-bA-[…] (400 nM), 4 μM ATP (with 0.2μ Ci of ^33P-ATP/well) and the test substance in 50 μl of conventional experimental solution per well are incubated at 30° C. for 60 min. The test substances are employed in corresponding concentrations (if desired in a dilution series). The control is carried out without test substance. The reaction is stopped using standard methods and washed. The activity of the kinase is measured via the incorporated radioactivity in top count. In order to determine the non-specific kinase reaction (blank value), the experimental batches are carried out in the presence of 100 nM staurosporin.
The radioactivity (decompositions per minute) of the blank value (no use of test substance in the presence of staurosporin) is subtracted from all other radioactivity values. The controls (kinase activity without test substance) are set equal to 100 percent and all other radioactivity values (after subtracting the blank value) are expressed set in relation thereto (for example in % of the control).
IC50 values (50% inhibition) are determined with the aid of statistics programmes, such as, for example, RS1.

Test [2] deals with T2, PDK1 (Homo sapiens, UniProt O15530).
T2 construct: endogenous in cells; host or cells: PC3 cells
T2 sequence (O15530 1-556): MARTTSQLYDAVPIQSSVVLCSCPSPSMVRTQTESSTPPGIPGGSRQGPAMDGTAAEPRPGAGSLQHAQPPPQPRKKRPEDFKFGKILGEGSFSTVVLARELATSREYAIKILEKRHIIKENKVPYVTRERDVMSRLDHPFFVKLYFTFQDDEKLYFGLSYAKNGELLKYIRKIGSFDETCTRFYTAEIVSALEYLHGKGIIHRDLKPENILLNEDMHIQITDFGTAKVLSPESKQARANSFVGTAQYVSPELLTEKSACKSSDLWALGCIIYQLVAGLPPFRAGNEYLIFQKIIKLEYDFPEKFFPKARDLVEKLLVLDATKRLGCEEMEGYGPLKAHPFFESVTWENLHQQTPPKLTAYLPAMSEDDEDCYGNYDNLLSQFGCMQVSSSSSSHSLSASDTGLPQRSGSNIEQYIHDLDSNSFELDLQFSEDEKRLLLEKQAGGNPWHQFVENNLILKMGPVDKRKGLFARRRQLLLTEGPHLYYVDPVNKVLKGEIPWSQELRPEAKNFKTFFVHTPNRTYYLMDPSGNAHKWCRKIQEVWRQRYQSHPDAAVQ
Put plainly: Cellular testing of PDK1 kinase inhibitors in PC3 cells (Luminex, phospho-T308-PKB). It is filed as cell-based. The note with it: 30 min, serum-free. How it is done: Method for the Cellular Testing of PDK1 Kinase Inhibitors in PC3 Cells.
The cellular assay for the determination of the PDK1 kinase activity is carried out as a Luminex assay in the 96-well format. PC3 cells are sown at 20,000 cells per well in 100 μl of medium (45% of […]/45% of Ham's F12/10% of FCS) and incubated on the following day for 30 min with a serial dilution of the test substance (7 concentrations) under serum-free conditions. The cells are subsequently lysed using 90 μl of lysis buffer (20 mM tris/HCl pH 8.0, 150 mM NaCl, 1% of NP40, 10% of glycerol, 1% of phosphatase inhibitor I, 1% of phosphatase inhibitor II, 0.1% of protease inhibitor cocktail III, 0.01% of benzonase) per well, and the lysates are separated off from insoluble cell constituents by means of centrifugation through a 96-well filter plate (0.65 μm). The lysates are incubated overnight at 4° C. with shaking with Luminex beads to which an anti-total PKB antibody is coupled. The detection is carried out on the following day by addition of a phospho-T308-PKB antibody and a species-specific […] secondary antibody. The detection of phospho T308-PKB is carried out by measurement in a Luminex100 instrument by determination of 100 events per cavity in a measurement time of 60 sec. As pharmacological blank, the signals obtained from cells which have been treated with 10 μM staurosporin are subtracted from all other batches. The control value used for maximum phosphorylation of PKB on T308 are the signals from cells which have only been treated with the solvent (0.3% of DMSO). The values of the batches treated with test substance are calculated therefrom as percentage of control, and IC50 values are determined by means of RS 1.

Turning to `Cn1cc(-c2cnc3[nH]cc(-c4nnc(C(O)c5ccccc5C(F)(F)F)o4)c3c2)cn1` (stereo not shown) [A86], the pIC50 in test [1] and in test [2] was 6.00 to 9.30 each time.
On to `CCC(O)(c1cccc(F)c1)c1cc(-c2c[nH]c3ncc(-c4cnn(C)c4)cc23)no1` (stereo not shown) [A11], for which the negative-log IC50 (pIC50) in test [1] and in test [2] was 6.00 to 9.30 in each case.
Regarding `Cn1cc(-c2cnc3[nH]cc(-c4nnc(Cc5ccccc5)o4)c3c2)cn1` [A21], the pIC50 (as a rule, −log10 of the IC50, conventionally taken in molar units) in test [1] is 6.00 to 9.30; in test [2] it was 5.00 to 6.00.
For the molecule `Cn1cc(-c2cnc3[nH]cc(-c4nnc(C(C)(O)c5ccccc5)o4)c3c2)cn1` (stereo not shown) [A45], the figures for the negative-log IC50 (pIC50) in test [1] and in test [2] were 6.00 to 9.30 and 5.00 to 6.00, respectively.
On the same counts, the results for `Cn1cc(-c2cnc3[nH]cc(-c4cc(C(O)c5ccccc5)n(C)n4)c3c2)cn1` (stereo not shown) [A84] are 6.00 to 9.30 and 5.00 to 6.00.
Take `Cn1cc(-c2cnc3[nH]cc(-c4nnc(Cc5cccc(F)c5F)o4)c3c2)cn1` [A20]: the pIC50 was 6.00 to 9.30 in test [1] and 5.00 to 6.00 in test [2].
As for `Cn1cc(-c2cnc3[nH]cc(-c4cc(C(C)(O)c5cccc(F)c5F)on4)c3c2)cn1` (stereo not shown) [A61], the pIC50 in test [1] and in test [2] was 6.00 to 9.30 each time.
In the case of `Cn1cc(-c2cnc3[nH]cc(-c4nnc(C(O)c5ccccc5Cl)o4)c3c2)cn1` (racemic) [A58], the negative logarithm of the IC50 (pIC50) in test [1] and in test [2] was 6.00 to 9.30 in each case.
`Cn1cc(-c2cnc3[nH]cc(-c4cc(C(C)(O)c5cccc(F)c5)[nH]n4)c3c2)cn1` (stereo not shown) [A37, 1-(3-fluorophenyl)-1-{5-[5-(1-methyl-1H-pyrazol-4-yl)-1H-pyrrolo[2,3-b]pyridin-3-yl]-2H-pyrazol-3-yl}ethanol]: the negative-log IC50 (pIC50) in test [1] and in test [2] was 6.00 to 9.30 throughout.
On to `COc1ccc(C2(c3nc(-c4c[nH]c5ncc(-c6cnn(C)c6)cc45)n[nH]3)CC2)cn1` [A127, 3-{5-[1-(6-methoxypyridin-3-yl)cyclopropyl]-1H-1,2,4-triazol-3-yl}-5-(1-methyl-1H-pyrazol-4-yl)-1H-pyrrolo[2,3-b]pyridine], for which the pIC50 in test [1] and in test [2] was 5.00 to 6.00 each time.
`Cn1cc(-c2cnc3[nH]cc(-c4n[nH]c(C(C)(O)c5cccc(F)c5)n4)c3c2)cn1` (stereo not shown) [A44]: the negative-log IC50 (pIC50) was 6.00 to 9.30 in test [1] and 5.00 to 6.00 in test [2].
For the molecule `Cc1cc(C2(c3nnc(-c4c[nH]c5ncc(-c6cnn(C)c6)cc45)o3)CC2)ccn1` [A85, 5-(1-methyl-1H-pyrazol-4-yl)-3-{5-[1-(2-methylpyridin-4-yl)-cyclopropyl]-1,3,4-oxadiazol-2-yl}-1H-pyrrolo[2,3-b]pyridine], the negative-log IC50 (pIC50) in test [1] and in test [2] was 5.00 to 6.00 each time.
For the molecule `Cn1cc(-c2cnc3[nH]cc(-c4cc(C(C)(O)c5ccccc5Cl)on4)c3c2)cn1` (stereo not shown) [A89], the pIC50 in test [1] and in test [2] was 6.00 to 9.30 throughout.
For `Cn1cc(-c2cnc3[nH]cc(-c4cc([C@](C)(O)c5ccccc5F)on4)c3c2)cn1` (single isomer, unassigned) [A55], the negative-log IC50 (pIC50) in test [1] and in test [2] was 6.00 to 9.30 in each case.
Consider `CC(O)(c1cc(-c2c[nH]c3ncc(-c4cnn(CCO)c4)cc23)no1)c1ccccc1F` (stereo not shown) [A24], for which the pIC50 in test [1] and in test [2] was 6.00 to 9.30 in each case.
Take `Cn1cc(-c2cnc3[nH]cc(-c4nnc(C5(c6cccnc6)CC5)o4)c3c2)cn1` [A124, 5-(1-methyl-1H-pyrazol-4-yl)-3-[5-(1-pyridin-3-ylcyclopropyl)-1,3,4-oxadiazol-2-yl]-1H-pyrrolo[2,3-b]pyridine]: the pIC50 was 6.00 to 9.30 in test [1] and 5.00 to 6.00 in test [2].
For `Cn1cc(-c2cnc3[nH]cc(-c4n[nH]c(C(C)(O)c5cccc(F)c5F)n4)c3c2)cn1` (stereo not shown) [A54], the negative-log IC50 (pIC50) in test [1] is 6.00 to 9.30; in test [2] it was 5.00 to 6.00.
On the same counts, the results for `Cn1cc(-c2cnc3[nH]cc(-c4n[nH]c(Cc5cccc(F)c5F)n4)c3c2)cn1` [A16] are 6.00 to 9.30 and 6.00 to 9.30.
On the same counts, the results for `COC(c1ccccc1)c1nnc(-c2c[nH]c3ncc(-c4cnn(C)c4)cc23)o1` (stereo not shown) [A81] are 6.00 to 9.30 and 5.00 to 6.00.
On to `Cn1cc(-c2cnc3[nH]cc(-c4n[nH]c(C(C)(O)c5ccccc5)n4)c3c2)cn1` (stereo not shown) [A42, 1-{5-[5-(1-methyl-1H-pyrazol-4-yl)-1H-pyrrolo[2,3-b]pyridin-3-yl]-2H-1,2,4-triazol-3-yl}-1-phenylethanol], for which the pIC50 in test [1] was 6.00 to 9.30; in test [2], 5.00 to 6.00.
The matching figures for `Cn1cc(-c2cnc3[nH]cc(-c4n[nH]c(C(O)c5ccccc5Cl)n4)c3c2)cn1` (stereo not shown) [A87, (2-chlorophenyl)-{5-[5-(1-methyl-1H-pyrazol-4-yl)-1H-pyrrolo[2,3-b]pyridin-3-yl]-2H-1,2,4-triazol-3-yl}-methanol]: 6.00 to 9.30 and 5.00 to 6.00.
On the same counts, the results for `Cn1cc(-c2cnc3[nH]cc(-c4cc(C(O)(c5ccnnc5)C(C)(C)C)on4)c3c2)cn1` (stereo not shown) [A100, 2,2-dimethyl-1-{3-[5-(1-methyl-1H-pyrazol-4-yl)-1H-pyrrolo-[2,3-b]pyridin-3-yl]isoxazol-5-yl}-1-pyridazin-4-ylpropan-1-ol] are 6.00 to 9.30 and 5.00 to 6.00.
For `Cn1cc(-c2cnc3[nH]cc(-c4n[nH]c(C5(c6ccc(=O)[nH]c6)CC5)n4)c3c2)cn1` [A126, 5-(1-{5-[5-(1-methyl-1H-pyrazol-4-yl)-1H-pyrrolo[2,3-b]pyridin-3-yl]-2H-1,2,4-triazol-3-yl}cyclopropyl)-1H-pyridin-2-one], the values for the pIC50 in test [1] and in test [2] were 6.00 to 9.30 and 5.00 to 6.00, respectively.
The matching figures for `Cn1cc(-c2cnc3[nH]cc(-c4cc([C@](C)(O)c5cccc(F)c5)on4)c3c2)cn1` (single isomer, unassigned) [A62]: 6.00 to 9.30 and 5.00 to 6.00.
Turning to `Cn1cc(-c2cnc3[nH]cc(-c4cc([C@@](C)(O)c5ccccc5)on4)c3c2)cn1` (single isomer, unassigned) [A34], the pIC50 in test [1] and in test [2] was 6.00 to 9.30 each time.
In the case of `C=C(c1ccccc1)c1cc(-c2c[nH]c3ncc(-c4cnn(C)c4)cc23)nn1CCO` [A69], the pIC50 in test [1] and in test [2] was 5.00 to 6.00 in each case.
`Cn1cc(-c2cnc3[nH]cc(-c4nnc(C5(c6ccccc6F)CC5)o4)c3c2)cn1` [A70]: the negative-log IC50 (pIC50) in test [1] and in test [2] was 6.00 to 9.30 each time.
`Cn1cc(-c2cnc3[nH]cc(-c4cc(CO)on4)c3c2)cn1` [A105]: the negative logarithm of the IC50 (pIC50) in test [1] is 6.00 to 9.30; in test [2] it was 5.00 to 6.00.
On the same counts, the results for `Cn1cc(-c2cnc3[nH]cc(-c4noc(C(C)(O)c5cccc(F)c5F)n4)c3c2)cn1` (stereo not shown) [A52] are 6.00 to 9.30 and 5.00 to 6.00.
